Measured values from patent US10159684B2, “Pharmaceutical compositions for preventing glucocorticoid-induced corneal thinning” (INSERM (INSTITUT NATIONAL DE LA SANTE ET DE LA RECHERCHE …, priority 2013, dated 2018).

Columns and labels:
[1] = test system: normal adult mice; test: Glucocorticoid-induced reduction of epidermal thickness in normal adult mice, topical application over the back pelage; type: in vivo; conditions: 7 days; for epidermal thickness, MR antagonist added to clobetasol: spironolactone 10 mM added to clobetasol 0.1 mM solution, FIG. 2
Experimental: In another set of experiments, we used normal adult mice that were treated by application of glucocorticoid (clobetasol, as 0.1 mM ethanol solution) alone or together with spironolactone (10 mM) over the back pelage, during 7 days.

[2] = test system: human skin explants; test: Organotypic culture of human skin explants, epidermal thickness; type: cell-based; conditions: clobetasol 100 nM plus MR blocker 10 micromolar, 6 days, air/liquid interface; FIG. 3
Experimental: Human skin explants grown as organotypic culture represent a valuable model to study cx vivo epidermal homeostasis. Skin punches (3 mm) were made (accupunch) from human skin (discarded during mammary gland surgery) and placed in organotypic culture as explants (air/liquid interface) in 2 ml DMEM and 10% decomplemented charcoal-stripped foetal bovine scrum to remove steroids for 6 days, in the presence of clobetasol (100 nM) alone or together with spironolactone or canrenoate (potassium canrenoate) (10 micromolar) or solvent alone (0.1% ethanol).

[3] = test system: mice with MR overexpression in keratinocytes; test: MR antagonist given during pregnancy to mice with MR overexpression in keratinocytes (K5-MR); type: in vivo; conditions: pregnant mice received the MR antagonist all along pregnancy; two litters
Text: To test whether the reduced epidermal thickness is related to excessive MR activation in this mouse model, we administered an antagonist of the mineralocorticoid receptor during pregnancy of the mice. […] The question arises to know which MR ligand activates the MR in this condition. Because of the absence of HSD2 (the enzyme that inactivates glucocorticoids) in the epidermis (Kenouch S, Lombes M, Delahaye F, Eugene E, Bonvalet J P, Farman N. Human skin as target for aldosterone: coexpression of mineralocorticoid receptors and 11 beta-hydroxysteroid dehydrogenase. J Clin Endocrinol Metab. 1994: 79(5): 1334-41), it is likely that MR bound ligand is endogenous corticosterone, rather than aldosterone.

SMILES | epidermal thickness, glucocorticoid alone ([1]; clobetasol 0.1 mM ethanol solution, topical over back pelage) | thickness of the epidermis, MR blocker together with clobetasol [2] | epidermal thickness, MR antagonist added to clobetasol ([1]; topical) | epidermal thickness, MR antagonist added to clobetasol ([1]; topical, listed as Spironolactone) | epidermal thickness, MR antagonist alone ([1]; spironolactone alone, topical) | epidermal thickness of double-transgenic pups (histology) [3] | skin appearance of double-transgenic pups [3]
C[C@H]1C[C@H]2[C@@H]3CCC4=CC(=O)C=C[C@]4(C)[C@@]3(F)[C@@H](O)C[C@]2(C)[C@@]1(O)C(=O)CCl [Clobetasol, clobetasol] | drastic reduction of epidermal thickness |  |  |  |  |  | 
CC(=O)S[C@@H]1CC2=CC(=O)CC[C@]2(C)[C@H]2CC[C@@]3(C)[C@@H](CC[C@@]34CCC(=O)O4)[C@H]12 [spironolactone, 17-hydroxy-7α-mercapto-3-oxo-17α-pregn-4-ene-21-carboxylic acid γ-lactone acetate] |  | increase the thickness of the epidermis | reduction in epidermal thickness induced in mice by the glucocorticoid clobetasol was limited | significantly increased epidermal thickness | had no effect |  | 
C[C@]12CCC(=O)C=C1C=C[C@@H]1[C@@H]2CC[C@@]2(C)[C@H]1CC[C@@]2(O)CCC(=O)O [Canrenoate, potassium canrenoate] |  | increase the thickness of the epidermis |  |  |  | histologically normal epidermal thickness | normal skin appearance
